From patent publication US4522815A, “Anthracycline glycosides” (priority 1982, dated 1985)
In brackets after ≈: the same amount, converted by molar mass.

Tests used:
Gross leukemia [1] = assay: Oral activity against i.v. transplanted Gross leukemia (i.v. comparators); assay type: in vivo, C3H/Me mice; settings: Table 7, oral +1
Source text: Results of studies performed in C3H/Me mice carrying i.v. transplanted Gross leukemia and treated i.v. the day after tumor transplantation, are reported in Table 6. […] The compounds Ib and Id were further investigated for oral activity on Gross leukemic transplanted i.v., in comparison with DNR, DX given i.v. and 4-dm DNR given oral route.
Oral activity of Ib and Id against Gross leukemia
^a days after transplantation
(§1) ^d data of two experiments (range)

Gross leukemia [2] = settings: already demonstrated; cited from earlier work
HeLa cells = assay: Colony inhibition test against HeLa cells in vitro (cloning efficiency), treatment for 24 hrs; assay type: cell-based; settings: Homo sapiens, HeLa, 24 h, Table 3, 24 hrs
ascitic P388 leukemia = assay: Antitumor activity against ascitic P388 leukemia in CDF-1 mice, treatment i.p. on day 1; assay type: in vivo; settings: Table 5; 0.75 mg/kg i.p. day 1
Description: The primary screening […] was carried out in CDF-1 mice bearing ascitic P388 leukemia (10^6 cells/mouse). Both IIa and IIc were suspended in 10%. Tween 80 and injected intraperitoneally.
Results of the primary screening "in vivo" carried out in CDF-1 mice bearing P388 ascitic leukemia and treated i.p. the day after tumor transplantation, are reported in Table 5.
Antitumor activity against ascitic P388 leukekemia.
(§2) Treatment i.p. on day 1.
^a median survival time; % over untreated controls
^b long term survivors (≥ 60 days)
^c evaluated on the basis of autoptic findings on dead mice
as §1
^e date of three experiments (range)
Antitumor activity of Ib and Id against ascitic P388
as §2

In the case of `CC(=O)[C@]1(O)Cc2c(O)c3c(c(O)c2[C@@H](O[C@H]2C[C@H](N)[C@H](O)[C@H](C)O2)C1)C(=O)c1ccccc1C3=O` [4-dm DNR, 4-demethoxy DNR, reference compound], the “T/C %, median survival time” value (Gross leukemia [1]; 3 mg/kg) is reported as 150%, the Toxic deaths (Gross leukemia [1]; 3 mg/kg) is reported as 0/6 and the “T/C %, median survival time” value (Gross leukemia [1]; 3.6 mg/kg) is reported as 150%. The Toxic deaths (Gross leukemia [1]; 3.6 mg/kg) was 0/6, the “T/C %, median survival time” value (Gross leukemia [1]; 4.3 mg/kg) was 216% and the Toxic deaths (Gross leukemia [1]; 4.3 mg/kg) was 0/3. The “activity by oral route” value (Gross leukemia [2]) was “active by oral route”, the activity at 0.0031 µg/mL (HeLa cells; 3.1 ng/ml, read-out: No of colonies, % of untreated controls) was 84% and the activity at 0.0062 µg/mL (HeLa cells; 6.2 ng/ml, read-out: No of colonies, % of untreated controls) was 53%. It also gave an activity at 0.0125 µg/mL (HeLa cells; 12.5 ng/ml, read-out: No of colonies, % of untreated controls) of 18%, an activity at 0.025 µg/mL (HeLa cells; 25 ng/ml, read-out: No of colonies, % of untreated controls) of 0% and an IC50 (HeLa cells; HeLa colony inhibition, read-out: ID50 (the source's name)) of roughly 6.3 ng/mL (≈ 0.0127 µM). The “LTS, long term survivors (≥ 60 days)” value (ascitic P388 leukemia) was 0/8, the “T/C, median survival time; % over untreated controls” value (ascitic P388 leukemia) was 163% and the “Toxic deaths (autoptic findings on dead mice)” value (ascitic P388 leukemia) was 0/8.
